Consider four compounds from paper PMC9699089 (Pathogens, 2022).

In data set [1] the test system is FPf1T (DNA, G4) GGGTTTAGGGTTTAGGGTTTAGGG
Description: FRET melting. As to conditions: 10 mM KCl, 90 mM LiCl; 10 mM lithium cacodylate pH 7.2; 0.2 µM oligonucleotide, 2 µM compound.

Data set [2] has as its system FPf8T (DNA, G4) GGGTTCAGGGTTCAGGGTTCAGGG
In words: FRET melting. Particulars: 10 mM KCl, 90 mM LiCl; 10 mM lithium cacodylate pH 7.2; 0.2 µM oligonucleotide, 2 µM compound.

Data set [3] relates to Pf8 (DNA, G4) GGGTTCAGGGTTCAGGGTTCAGGG
In words: native ESI-MS. Particulars: 1 mM KCl, 100 mM TMAA, 10 µM oligonucleotide, 20 µM ligand.

In data set [4] the test system is 24TTG (DNA, G4) TTGGGTTAGGGTTAGGGTTAGGGA
In words: native ESI-MS. As to conditions: 1 mM KCl, 100 mM TMAA, 10 µM oligonucleotide.

The test system of data set [5] is FtrypBT (FEBR1T) (DNA, G4) GGGCAGGGGGTGATGGGGAGGAGCCAGGG
In words: FRET melting. Particulars: 10 mM KCl, 90 mM LiCl; 10 mM lithium cacodylate pH 7.2; 0.2 µM oligonucleotide, 2 µM compound.

The test system of data set [6] is Pf1 (DNA, G4) GGGTTTAGGGTTTAGGGTTTAGGG
Description: native ESI-MS. As to conditions: 1 mM KCl, 100 mM TMAA, 10 µM oligonucleotide.

In data set [7] the test system is F21T (DNA, G4) GGGTTAGGGTTAGGGTTAGGG
Description: FRET melting. Particulars: 10 mM KCl, 90 mM LiCl, 10 mM lithium cacodylate pH 7.2, 0.2 µM oligonucleotide.

Data set [8] relates to FdxT (DNA, hairpin, hexaethyleneglycol linker between position 10 and 11) TATAGCTATATATAGCTATA
In words: FRET melting. As to conditions: 10 mM KCl, 90 mM LiCl, 10 mM lithium cacodylate pH 7.2, 0.2 µM oligonucleotide.

Data set [9] relates to DK66 (DNA, duplex) CGCGAATTCGCG
Description: native ESI-MS. As to conditions: 1 mM KCl; 100 mM TMAA; 10 µM oligonucleotide; no binding detected at 20 µM ligand.

In data set [10] the test system is 24nonG4 (DNA, single strand) TGGGATGCGACAGAGAGGACGGGA
In words: native ESI-MS. As to conditions: 1 mM KCl; 100 mM TMAA; 10 µM oligonucleotide; no binding detected at 20 µM ligand.

Another data set concerns human HepG2 cells. In words: Cytotoxicity evaluation, MTT assay. Particulars: HepG2 cells; 72 h; mean +/- SD of three independent experiments. It is filed as cell-based. The protocol:
These cells are a commonly used human hepatocarcinoma-derived cell line that has characteristics similar to those of primary hepatocytes. These cells express many hepatocyte-specific metabolic enzymes, thus enabling the cytotoxicity of tested product metabolites to be evaluated. […] Duplicate assays were performed for each sample. Each well was microscopically examined for precipitate formation before the medium was aspirated from the wells. After aspiration, 100 µL of MTT solution (0.5 mg/mL in medium without FCS) were then added to each well. […] The MTT solution was removed, and DMSO (100 µL) was added to dissolve the resulting blue formazan crystals. Plates were shaken vigorously (300 rpm) for 5 min. The absorbance was measured at 570 nm with 630 nm as reference wavelength in a BIO-TEK ELx808 Absorbance Microplate Reader. DMSO was used as blank and doxorubicin (Sigma Aldrich) as positive control. Cell viability was calculated as percentage of control (cells incubated without compound). The CC50 was determined from the dose-response curve using TableCurve 2D V5.0 software (Systat Software, Palo Alto, CA, USA).
Background: Tetrazolium dyes change colour on reduction, which living cells bring about.

The subject of data set [11] is T. brucei brucei AnTat 1.9. In words: In vitro antitrypanosomal activity, Alamar Blue assay. It is filed as cell-based, Trypanosoma brucei brucei. A digest of the protocol:
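Bloodstream T. brucei brucei AnTat 1.9 cultured in supplemented MEM with Earle's salts and exposed to compounds in duplicate for 69 h at 37 °C. Alamar Blue then added for 5 h, with fluorescence read at ex 530/em 590 nm.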

In data set [12] the test system is L. donovani (MHOM/IN/00/DEVI) promastigotes. Description: In vitro antileishmanial activity on promastigotes, MTT assay. As to conditions: Leishmania donovani, 72 h incubation, mean +/- SD of three independent experiments. It is filed as cell-based. The method, boiled down:
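Log-phase L. donovani MHOM/IN/00/DEVI promastigotes at 10^6 parasites/mL in Schneider's medium with 20% FCS were exposed to compounds for 72 h at 27 °C, final DMSO under 0.5%. Viability was read by MTT reduction over 4 h, absorbance 570 nm (630 nm reference). IC50 came from regression, three independent experiments.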

The subject of data set [13] is Plasmodium telomeric sequence FPf1T G-quadruplex. In words: FRET melting assay, FPf1T. It is filed as binding, Plasmodium falciparum. As to conditions: tested at 0.5 μM, oligonucleotide 0.2 μM, K+ conditions.
Data set [14] concerns Trypanosoma 9 and 11 chromosomic sequence FTrypBT (FEBR1T) G-quadruplex. In words: FRET melting assay, FtrypBT. It is filed as binding, Trypanosoma brucei brucei. As to conditions: tested at 0.5 μM, oligonucleotide 0.2 μM, K+ conditions. The protocol: These were performed with dual-labeled oligonucleotides mimicking the Plasmodium telomeric sequences FPf1T [FAM-5′(GGGTTTA)3-GGG3′-TAMRA] and FPf8T [FAM-5′(GGGTTCA)3GGG3′-TAMRA], the Trypanosoma 9 and 11 chromosomic sequence FTrypBT (also named FEBR1T) [FAM-5′[…]3′-TAMRA], the human telomeric sequence F21T [FAM-(GGGTTA)3-GGG3′-TAMRA] and the human duplex sequence FdxT [FAM5′-[…]-hexaethyleneglycol-[…]3′-TAMRA] [27, 31, 47]. The oligonucleotides were pre-folded in 10 mM lithium cacodylate buffer (pH 7.2), with 10 mM KCl and 90 mM LiCl (K^+ condition). The FAM emissions were recorded at 516 nm using a 492-nm excitation wavelength in the absence and presence of a single compound as a function of temperature (25 to 95 °C) in 96-well microplates using a Stratagene MX3000P real-time PCR device at a rate of 1 °C∙min-1. Data were normalized between 0 and 1, and the required temperature for half-denaturation of oligonucleotides corresponding to the emission value of 0.5 was taken as the Tm. Each experiment was performed in duplicate with 0.2 µM of labeled oligonucleotide and 2 µM of compound under K^+ condition. For each compound, three independent experiments were carried out.

In data set [15] the test system is Plasmodium telomeric sequence FPf8T G-quadruplex. Description: FRET melting assay, FPf8T. It is filed as binding, Plasmodium falciparum. Particulars: tested at 0.5 μM, oligonucleotide 0.2 μM, K+ conditions.
The subject of data set [16] is human telomeric sequence F21T G-quadruplex. Description: FRET melting assay, F21T. It is filed as binding. As to conditions: tested at 0.5 μM, oligonucleotide 0.2 μM, K+ conditions.
Data set [17] concerns human duplex sequence FdxT. Description: FRET melting assay, duplex control FdxT. It is filed as binding. As to conditions: tested at 0.5 μM, oligonucleotide 0.2 μM, K+ conditions.
Setting [18] is: no binding detected at 20 µM ligand.

For `CN(C)CCCCCNCc1cc(-c2ccccc2)c2ccc3c(-c4ccccc4)cc(CNCCCCCN(C)C)nc3c2n1`, the ΔTm (commonly the change in melting temperature against a reference sample) in data set [1] turned out to be 18.8 ± 0.2 °C; in data set [2] it was 20.5 ± 0.2 °C; in data set [5], 14.7 ± 0.7 °C; in [7] (2 µM compound) it was 18.1 ± 0.9 °C; in data set [8] (2 µM compound), 1.8 ± 0.2 °C. The Kd1 came out at 3 µM in data set [3] (site 1 of 2 (Kd2 16 µM)); 38 µM in data set [4] (20 µM ligand, site 1 of 2 (Kd2 62 µM)); 8 µM in [6] (20 µM ligand, site 1 of 2 (Kd2 24 µM)).

For the compound `c1ccc(-c2cc(CNCCc3ccccn3)nc3c2ccc2c(-c4ccccc4)cc(CNCCc4ccccn4)nc23)cc1`, the ΔTm in data set [1] came out at 1.3 ± 0.2 °C; in data set [2], 1.0 ± 0.2 °C; in [5], 1.8 ± 0.6 °C; in data set [7] (2 µM compound) it was 1.0 ± 0.5 °C. The compound also yielded a Kd1 in data set [3] of 83 µM. For the same compound, the binding entry in [9], in [4] (setting [18]), in [10] and in data set [6] (setting [18]) was “no” each time.

Regarding `N=C(N)c1ccc(OCCCCCOc2ccc(C(=N)N)cc2)cc1` [Pentamidine, reference compound], the CC50 – broadly, the concentration at which the toxic effect on the cells reaches its halfway point – in the data set on human HepG2 cells came out at 2300 ± 500 nM. In addition, in data set [11] (SI = CC50 HepG2 / IC50 Trypanosoma brucei brucei), the “Selectivity Index HepG2/Tryp.” value was 11,500. In addition, the IC50 (in general, the point on the concentration scale where inhibition reaches its midpoint) in data set [11] (Trypanosoma brucei, slender bloodstream trypomastigotes, AnTat 1.9 strain, mean +/- SD of three independent experiments, read-out: Trypanosoma brucei brucei IC50 Values Trypanos Antat 1.9) was 0.2 ± 0.06 nM; in data set [12], 5500 ± 800 nM.

Consider `C[n+]1cc(NC(=O)c2ccc3ccc4ccc(C(=O)Nc5cc6ccccc6[n+](C)c5)nc4c3n2)cc2ccccc21` [PhenDC3], for which the “ΔTm FPf1T” value in data set [13] was found to be 24.6 °C. The “ΔTm FtrypBT” value in data set [14] is 19.2 °C. Also, the “ΔTm FPf8T” value in [15] was 24.7 °C. For the same compound, the “ΔTm F21T” value in [16] worked out at 26.3 °C. In addition, the “ΔTm FdxT” value in data set [17] came out at 0.1 °C. Further, the ΔTm in data set [7] (0.5 µM compound) was found to be 26.3 ± 0.1 °C; in data set [8] (0.5 µM compound), 0.1 ± 0.2 °C.
